target: Nuclear factor erythroid 2-related factor 2 (Mus musculus) (UniProt Q60795); test: Activation of Nrf2 in mouse Hepa1c1c7 cells assessed as increase in NQO1 activity at 25 uM using menadione as substrate incubated for 20 mins followed by substrate addition and measured after 30 mins by spectrophotometry relative to control; settings: filed as activator, time 50.0 min
Sequence (Q60795 whole entry, looked up): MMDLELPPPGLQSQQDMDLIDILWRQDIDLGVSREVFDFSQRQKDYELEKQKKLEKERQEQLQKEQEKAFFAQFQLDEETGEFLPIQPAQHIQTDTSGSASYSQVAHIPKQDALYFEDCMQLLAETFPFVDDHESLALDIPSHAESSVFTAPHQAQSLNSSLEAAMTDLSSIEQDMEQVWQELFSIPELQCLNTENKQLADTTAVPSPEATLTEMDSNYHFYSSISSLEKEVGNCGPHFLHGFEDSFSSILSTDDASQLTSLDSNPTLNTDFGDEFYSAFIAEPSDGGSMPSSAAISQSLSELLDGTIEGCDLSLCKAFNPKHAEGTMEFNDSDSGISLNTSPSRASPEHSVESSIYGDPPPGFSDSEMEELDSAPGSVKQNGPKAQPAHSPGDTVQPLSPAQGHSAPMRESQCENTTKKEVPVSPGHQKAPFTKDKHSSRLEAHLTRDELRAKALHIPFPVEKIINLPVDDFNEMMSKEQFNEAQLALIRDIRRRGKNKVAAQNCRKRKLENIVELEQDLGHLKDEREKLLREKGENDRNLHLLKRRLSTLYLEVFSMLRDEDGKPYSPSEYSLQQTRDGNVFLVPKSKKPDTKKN

| T/C | Structure (SMILES) |
| --- | --- |
| 1.26 | NS(=O)(=O)c1ccc(-n2c(SCC(=O)Nc3ccccc3)nc3c(I)cc(I)cc3c2=O)cc1 |
| 1.73 | COc1cc(NC(=O)CSc2nc3c(I)cc(I)cc3c(=O)n2-c2ccc(S(N)(=O)=O)cc2)cc(OC)c1 |
| 1.31 | Cc1ccccc1NC(=O)CSc1nc2c(I)cc(I)cc2c(=O)n1-c1ccc(S(N)(=O)=O)cc1 |
| 1.03 | CCc1ccc(NC(=O)CSc2nc3c(I)cc(I)cc3c(=O)n2-c2ccc(S(N)(=O)=O)cc2)cc1 |
| 1.27 | Cc1cccc(NC(=O)CSc2nc3c(I)cc(I)cc3c(=O)n2-c2ccc(S(N)(=O)=O)cc2)c1 |
| 1.18 | COc1ccc(NC(=O)CSc2nc3c(I)cc(I)cc3c(=O)n2-c2ccc(S(N)(=O)=O)cc2)cc1 |
| 1.05 | NS(=O)(=O)c1ccc(-n2c(S)nc3c(I)cc(I)cc3c2=O)cc1 |

target: Nuclear factor erythroid 2-related factor 2 (Mus musculus) (UniProt Q60795); test: Activation of Nrf2 in mouse Hepa1c1c7 cells assessed as increase in NQO1 activity at 50 uM using menadione as substrate incubated for 20 mins followed by substrate addition and measured after 30 mins by spectrophotometry relative to control; settings: filed as activator, time 50.0 min

| T/C | Structure (SMILES) |
| --- | --- |
| 1.47 | NS(=O)(=O)c1ccc(-n2c(SCC(=O)Nc3ccccc3)nc3c(I)cc(I)cc3c2=O)cc1 |
| 1.81 | COc1cc(NC(=O)CSc2nc3c(I)cc(I)cc3c(=O)n2-c2ccc(S(N)(=O)=O)cc2)cc(OC)c1 |
| 1.43 | Cc1ccccc1NC(=O)CSc1nc2c(I)cc(I)cc2c(=O)n1-c1ccc(S(N)(=O)=O)cc1 |
| 1.14 | CCc1ccc(NC(=O)CSc2nc3c(I)cc(I)cc3c(=O)n2-c2ccc(S(N)(=O)=O)cc2)cc1 |
| 1.48 | Cc1cccc(NC(=O)CSc2nc3c(I)cc(I)cc3c(=O)n2-c2ccc(S(N)(=O)=O)cc2)c1 |
| 1.29 | COc1ccc(NC(=O)CSc2nc3c(I)cc(I)cc3c(=O)n2-c2ccc(S(N)(=O)=O)cc2)cc1 |

test system: Nrf2 (Mus musculus); test: Activation of Nrf2 in mouse Hepa1c1c7 cells assessed as increase in NQO1 activity at 0.4 uM using menadione as substrate incubated for 20 mins followed by substrate addition and measured after 30 mins by spectrophotometry relative to control; settings: filed as activator, time 50.0 min

| T/C | Structure (SMILES) |
| --- | --- |
| 1.03 | NS(=O)(=O)c1ccc(-n2c(SCC(=O)Nc3ccccc3)nc3c(I)cc(I)cc3c2=O)cc1 |
| 1 | COc1cc(NC(=O)CSc2nc3c(I)cc(I)cc3c(=O)n2-c2ccc(S(N)(=O)=O)cc2)cc(OC)c1 |
| 1.04 | Cc1ccccc1NC(=O)CSc1nc2c(I)cc(I)cc2c(=O)n1-c1ccc(S(N)(=O)=O)cc1 |
| 0.98 | CCc1ccc(NC(=O)CSc2nc3c(I)cc(I)cc3c(=O)n2-c2ccc(S(N)(=O)=O)cc2)cc1 |
| 1.05 | Cc1cccc(NC(=O)CSc2nc3c(I)cc(I)cc3c(=O)n2-c2ccc(S(N)(=O)=O)cc2)c1 |
| 1.01 | COc1ccc(NC(=O)CSc2nc3c(I)cc(I)cc3c(=O)n2-c2ccc(S(N)(=O)=O)cc2)cc1 |
| 1.01 | NS(=O)(=O)c1ccc(-n2c(S)nc3c(I)cc(I)cc3c2=O)cc1 |

test system: Nrf2 (Mus musculus); test: Activation of Nrf2 in mouse Hepa1c1c7 cells assessed as increase in NQO1 activity at 0.8 uM using menadione as substrate incubated for 20 mins followed by substrate addition and measured after 30 mins by spectrophotometry relative to control; settings: filed as activator, time 50.0 min

| T/C | Structure (SMILES) |
| --- | --- |
| 1 | NS(=O)(=O)c1ccc(-n2c(SCC(=O)Nc3ccccc3)nc3c(I)cc(I)cc3c2=O)cc1 |
| 1.01 | COc1cc(NC(=O)CSc2nc3c(I)cc(I)cc3c(=O)n2-c2ccc(S(N)(=O)=O)cc2)cc(OC)c1 |
| 1.04 | Cc1ccccc1NC(=O)CSc1nc2c(I)cc(I)cc2c(=O)n1-c1ccc(S(N)(=O)=O)cc1 |
| 0.99 | CCc1ccc(NC(=O)CSc2nc3c(I)cc(I)cc3c(=O)n2-c2ccc(S(N)(=O)=O)cc2)cc1 |
| 1.01 | Cc1cccc(NC(=O)CSc2nc3c(I)cc(I)cc3c(=O)n2-c2ccc(S(N)(=O)=O)cc2)c1 |
| 1.02 | COc1ccc(NC(=O)CSc2nc3c(I)cc(I)cc3c(=O)n2-c2ccc(S(N)(=O)=O)cc2)cc1 |
| 1.04 | NS(=O)(=O)c1ccc(-n2c(S)nc3c(I)cc(I)cc3c2=O)cc1 |

test system: Nrf2 (Mus musculus); test: Activation of Nrf2 in mouse Hepa1c1c7 cells assessed as increase in NQO1 activity at 1.6 uM using menadione as substrate incubated for 20 mins followed by substrate addition and measured after 30 mins by spectrophotometry relative to control; settings: filed as activator, time 50.0 min

| T/C | Structure (SMILES) |
| --- | --- |
| 1.03 | NS(=O)(=O)c1ccc(-n2c(SCC(=O)Nc3ccccc3)nc3c(I)cc(I)cc3c2=O)cc1 |
| 1.02 | COc1cc(NC(=O)CSc2nc3c(I)cc(I)cc3c(=O)n2-c2ccc(S(N)(=O)=O)cc2)cc(OC)c1 |
| 1.04 | Cc1ccccc1NC(=O)CSc1nc2c(I)cc(I)cc2c(=O)n1-c1ccc(S(N)(=O)=O)cc1 |
| 0.98 | CCc1ccc(NC(=O)CSc2nc3c(I)cc(I)cc3c(=O)n2-c2ccc(S(N)(=O)=O)cc2)cc1 |
| 1.04 | Cc1cccc(NC(=O)CSc2nc3c(I)cc(I)cc3c(=O)n2-c2ccc(S(N)(=O)=O)cc2)c1 |
| 1 | COc1ccc(NC(=O)CSc2nc3c(I)cc(I)cc3c(=O)n2-c2ccc(S(N)(=O)=O)cc2)cc1 |
| 1.06 | NS(=O)(=O)c1ccc(-n2c(S)nc3c(I)cc(I)cc3c2=O)cc1 |

target: Nuclear factor erythroid 2-related factor 2 (Mus musculus) (UniProt Q60795); test: Activation of Nrf2 in mouse Hepa1c1c7 cells assessed as increase in NQO1 activity at 6.25 uM using menadione as substrate incubated for 20 mins followed by substrate addition and measured after 30 mins by spectrophotometry relative to control; settings: filed as activator, time 50.0 min

| T/C | Structure (SMILES) |
| --- | --- |
| 1.11 | NS(=O)(=O)c1ccc(-n2c(SCC(=O)Nc3ccccc3)nc3c(I)cc(I)cc3c2=O)cc1 |
| 1.22 | COc1cc(NC(=O)CSc2nc3c(I)cc(I)cc3c(=O)n2-c2ccc(S(N)(=O)=O)cc2)cc(OC)c1 |
| 1.13 | Cc1ccccc1NC(=O)CSc1nc2c(I)cc(I)cc2c(=O)n1-c1ccc(S(N)(=O)=O)cc1 |
| 0.99 | CCc1ccc(NC(=O)CSc2nc3c(I)cc(I)cc3c(=O)n2-c2ccc(S(N)(=O)=O)cc2)cc1 |
| 1.06 | Cc1cccc(NC(=O)CSc2nc3c(I)cc(I)cc3c(=O)n2-c2ccc(S(N)(=O)=O)cc2)c1 |
| 0.99 | COc1ccc(NC(=O)CSc2nc3c(I)cc(I)cc3c(=O)n2-c2ccc(S(N)(=O)=O)cc2)cc1 |
| 1.02 | NS(=O)(=O)c1ccc(-n2c(S)nc3c(I)cc(I)cc3c2=O)cc1 |

target: Nuclear factor erythroid 2-related factor 2 (Mus musculus) (UniProt Q60795); test: Activation of Nrf2 in mouse Hepa1c1c7 cells assessed as increase in NQO1 activity at 12.5 uM using menadione as substrate incubated for 20 mins followed by substrate addition and measured after 30 mins by spectrophotometry relative to control; settings: filed as activator, time 50.0 min

| T/C | Structure (SMILES) |
| --- | --- |
| 1.18 | NS(=O)(=O)c1ccc(-n2c(SCC(=O)Nc3ccccc3)nc3c(I)cc(I)cc3c2=O)cc1 |
| 1.52 | COc1cc(NC(=O)CSc2nc3c(I)cc(I)cc3c(=O)n2-c2ccc(S(N)(=O)=O)cc2)cc(OC)c1 |
| 1.27 | Cc1ccccc1NC(=O)CSc1nc2c(I)cc(I)cc2c(=O)n1-c1ccc(S(N)(=O)=O)cc1 |
| 1.01 | CCc1ccc(NC(=O)CSc2nc3c(I)cc(I)cc3c(=O)n2-c2ccc(S(N)(=O)=O)cc2)cc1 |
| 1.14 | Cc1cccc(NC(=O)CSc2nc3c(I)cc(I)cc3c(=O)n2-c2ccc(S(N)(=O)=O)cc2)c1 |
| 1.08 | COc1ccc(NC(=O)CSc2nc3c(I)cc(I)cc3c(=O)n2-c2ccc(S(N)(=O)=O)cc2)cc1 |
| 1.06 | NS(=O)(=O)c1ccc(-n2c(S)nc3c(I)cc(I)cc3c2=O)cc1 |

test system: Nrf2 (Mus musculus); test: Activation of Nrf2 in mouse Hepa1c1c7 cells assessed as increase in NQO1 activity at 3.125 uM using menadione as substrate incubated for 20 mins followed by substrate addition and measured after 30 mins by spectrophotometry relative to control; settings: filed as activator, time 50.0 min

| T/C | Structure (SMILES) |
| --- | --- |
| 1.06 | NS(=O)(=O)c1ccc(-n2c(SCC(=O)Nc3ccccc3)nc3c(I)cc(I)cc3c2=O)cc1 |
| 1.06 | COc1cc(NC(=O)CSc2nc3c(I)cc(I)cc3c(=O)n2-c2ccc(S(N)(=O)=O)cc2)cc(OC)c1 |
| 1.06 | Cc1ccccc1NC(=O)CSc1nc2c(I)cc(I)cc2c(=O)n1-c1ccc(S(N)(=O)=O)cc1 |
| 0.97 | CCc1ccc(NC(=O)CSc2nc3c(I)cc(I)cc3c(=O)n2-c2ccc(S(N)(=O)=O)cc2)cc1 |
| 1.05 | Cc1cccc(NC(=O)CSc2nc3c(I)cc(I)cc3c(=O)n2-c2ccc(S(N)(=O)=O)cc2)c1 |
| 0.98 | COc1ccc(NC(=O)CSc2nc3c(I)cc(I)cc3c(=O)n2-c2ccc(S(N)(=O)=O)cc2)cc1 |
| 1.01 | NS(=O)(=O)c1ccc(-n2c(S)nc3c(I)cc(I)cc3c2=O)cc1 |

From ChEMBL document CHEMBL4765347, “Radiomodulatory effect of a non-electrophilic NQO1 inducer identified in a screen of new 6, 8-diiodoquinazolin-4(3H)-ones carrying a sulfonamide moiety” (Eur J Med Chem, 2020)
